Laboratory results published in patent US9603836B2, “Pyrrolidine-2, 5-dione derivatives, pharmaceutical compositions and methods for use as IDO1 inhibitors” (ITEOS THERAPEUTICS, priority 2014, dated 2017).

Legend:
[1] = system: Kynurenine; assay: In-vivo inhibition of blood kynurenine levels in healthy mice; design: species or system mouse; details: two hours
Procedure: The compounds of the present invention reduce the amount of Kynurenine in healthy mouse blood.
Briefly, mice were treated with either a suspension of one of the compounds of the present invention in 0.5% hydroxypropyl methylcellulose (HPMC) K4M/0.25% Tween 20 at different doses, or with a vehicle control (0.5% HPMC K4M/0.25% Tween 20), by the oral route by gavage (dosing volume 5 mL/kg, 10 mice per group). After two hours, blood was harvested, plasma was prepared and the amount of Kynurenine present was determined by LC-MS-MS (HPLC column Unison UK-Phenyl, 75×4.6, 3 μm, flow rate 0.8 mL/min, 4 minutes gradient from water+0.2% acetic acid to methanol+0.1% formic acid, retention time 2.7 min; API4000™ MS-MS system from AB Sciex, ESI+ mode, parent ion 209.2, daughter ion 94.1).

[2] = system: CT26 tumors; assay: Tumor growth inhibition in CT26 colon syngeneic mouse tumor model; assay type: in vivo, Balb/c mice
Description: (§1) In the present study, CT26 syngeneic tumors were implanted subcutaneously in Balb-c mice. More particularly, Five hundred thousand (500,000) CT26 colon carcinoma cancer cells [CT26.WT, available from the ATCC® CRL-2628™] were implanted subcutaneously in 7 weeks old Balb/c mice (day 0). Animals were randomized based on tumor size when tumor average reached 150 mm^3 (day 11) into different treatment cohorts (n=10/group). […] The tumor was removed, weighted and frozen on dry ice. Tumors were analyzed by LC/MS-MS for Kynurenine concentration.
In a separate study, anti-tumor efficacy of IDO-1 inhibition was tested in the colon syngeneic mouse tumor model CT26 with a range of different treatment regimens. The model was essentially as described above, except that 1×10^6 cells in phosphate buffered saline (PBS) were implanted subcutaneously in the flank of 8 week old Balb/c females on day 0 (10 in each group). Mice were randomized into treatment groups (100 mg/kg BID, 200 mg/kg BID or 600 mg/kg BID) based on tumor size on day 9 when treatment started. The results are shown the following table and in FIG. 7.

[3] = system: Kynurenine; assay: Inhibition of tryptophan degradation in 4T1 tumor tissue; assay type: in vivo, Balb/c mice; details: 200 mg/kg oral twice per day, 4 h after administration
Procedure: Compounds of this invention are capable of lowering kynurenine concentration within mouse tumors, for example 4T1 syngeneic tumors of Balb/c mice implanted orthotopically in the mammary gland. One hundred thousand 4T1 breast cancer cells were implanted orthotopically within the mammary gland of 7 weeks old Balb/c mice (day 0). Animals were randomized based on tumor size when tumor average reached 60 mm^3 (day 6) into different treatment cohorts (n=10/group). Animals were treated with Methocel vehicle from day 6 to 26 until tumors reached a size comprised between 1500 and 2000 mm^3. […] The tumor was removed, weighted and frozen on dry ice. Tumors were analyzed by LC/MS-MS for Kynurenine concentration.

[4] = system: Kynurenine; assay: Inhibition of tryptophan degradation in CT26 tumor tissue; assay type: in vivo, Balb/c mice; details: 200 mg/kg oral twice per day, 2 h after administration
Description: as §1

[5] = system: PancO2 tumors; assay: In vivo efficacy in PancO2 pancreatic cancer syngeneic model; design: species or system C57/B16 mice; details: PancO2, 200 mg/kg BID oral
Procedure: In vivo efficacy studies of the Compounds of the present invention were performed on PancO2 syngeneic tumor model of C57/B16 mice implanted subcutaneously. Five millions PancO2 pancreas cancer cells were implanted subcutaneously to 7 weeks old C57/B16 mice (day 0). Animals were randomized based on tumor size when tumor average reached 60 mm^3 (between day 10 and 12) into different treatment cohorts. The Compound was administered orally twice per day (approximately at 9 am and 5 pm) starting the day of randomization. The Compound was suspended into Methocel vehicle and sonicated before oral administration to animals using gavage needles. Treatment was administered daily until the end of the study. All experimental animals were monitored for body weight changes weekly. Tumor volume was measured weekly using a caliper device and calculated with the following formula: Tumor volume=0.5×(length×width^2). Studies were terminated before tumor volumes reached 2000 mm. TGI (% tumor growth inhibition) was determined as
Treatment was administered daily until the end of the study. Tumor volume was measured weekly using a caliper device and calculated with the following formula: Tumor volume=0.5×(length×width^2). Mice were considered as dead when tumor size reached 400 mm^3. […] SEM refers to standard error of measurement.

[6] = system: 4T1 tumors; assay: In vivo efficacy in 4T1 breast cancer syngeneic model; design: species or system Balb/c mice; details: 4T1, 100 mg/kg BID oral
Procedure: In vivo efficacy studies for Compounds of the present invention were performed on 4T1 syngeneic tumor model of Balb/c mice implanted orthotopically in the mammary gland. One hundred thousand 4T1 breast cancer cells (ATCC® CRL-2539™)] were implanted orthotopically within the mammary gland of 7 weeks old Balb/c mice (day 0). Animals were randomized based on tumor size when tumor average reached 60 mm^3 (between day 7 and 11) into different treatment cohorts. The Compound of the present invention was administered orally twice per day (approximately at 9 am and 5 pm) starting the day of randomization. The Compounds were suspended into Methocel™ cellulose ether vehicle and sonicated before oral administration to animals using gavage needles. Treatment was administered daily until the end of the study. All experimental animals were monitored for body weight changes twice weekly. Tumor volume was measured twice a week by a caliper device and calculated with the following formula: Tumor volume=0.5×(length×width^2). Studies were terminated before tumor volumes reached 2000 mm. TGI (% tumor growth inhibition) was determined as […]

With O=C1CC(c2c[nH]c3ccc(F)cc23)C(=O)N1 (racemic) [Compound 1, 3-(5-fluoro-1H-indol-3-yl)pyrrolidine-2,5-dione] the “Kynurenine concentration in plasma (average ± standard error of the mean)” value ([1]; 100 mg/kg oral) was 111.1 ± 27.0 ng/mL, the “inhibition of circulating Kynurenine” value ([1]; 100 mg/kg oral) was 41% and the “Kynurenine concentration in plasma (average ± standard error of the mean)” value ([1]; 200 mg/kg oral) was 77.7 ± 9.2 ng/mL. The “inhibition of circulating Kynurenine” value ([1]; 200 mg/kg oral) was 59%, the “% TGI (D15)” value ([2]; CT26, 100 mg/kg BID) was 29% and the “% TGI (D17)” value ([2]; CT26, 100 mg/kg BID) was 33%. For the same molecule, the “% TGI (D20)” value ([2]; CT26, 100 mg/kg BID) was 20%, the “% TGI (D15)” value ([2]; CT26, 200 mg/kg BID) was 38% and the “% TGI (D17)” value ([2]; CT26, 200 mg/kg BID) was 41%. For the same molecule, the “% TGI (D20)” value ([2]; CT26, 200 mg/kg BID) was 34%, the “% TGI (D15)” value ([2]; CT26, 600 mg/kg BID) was 36% and the “% TGI (D17)” value ([2]; CT26, 600 mg/kg BID) was 51%. The “% TGI (D20)” value ([2]; CT26, 600 mg/kg BID) was 38%, the “Kynurenine concentration (ng/g tumor) Average ± SEM” value [3] was 417.2 ± 55.7 ng/g tumor and the “reduction of Kynurenine concentration” value [3] was 47%. The “Kynurenine concentration (ng/g tumor) Average ± SEM” value [4] was 876 ± 68 ng/g tumor, the “reduction of Kynurenine concentration” value [4] was 59% and the “Mean tumor volume on day 42” value [5] was 457.0 mm^3. For the same molecule, the “TGI (Tumor growth inhibition)” value ([5]; day 42) was 26.2%, the “Mean tumor volume on day 25” value [6] was 443.7 mm^3 and the “TGI (Tumor growth inhibition)” value ([6]; day 25) was 43.4%.
